Source: patent US7067277B1, “Chimeric G proteins and uses thereof” (H. Lundbeck A/S, priority 1999, dated 2006)

Biological target: T1, Human NPFF1 (Homo sapiens, UniProt Q9GZQ6)
T1 construct: linearized plasmids or PCR products containing the complete coding region of the genes; expressed in transfected cells; host or cells: Xenopus laevis oocytes (receptor cRNA injected)
Experiment: Cl- current recording in Xenopus oocytes expressing GPCR and chimeric G protein
Assay type: cell-based
Details: oocytes injected with 50 nl of 10 mM EGTA
Protocol: Oocytes were harvested from Xenopus laevis and injected with mRNA transcripts as previously described (Quick and Lester, 1994; Smith et al., 1997). Receptor and chimeric G protein α subunit RNA transcripts were synthesized using the T7 polymerase (“Message Machine,” Ambion) from linearized plasmids or PCR products containing the complete coding region of the genes. Oocytes were injected with 5–25 ng synthetic receptor RNA and incubated for 3–8 days at 17 degrees. Three to eight hours prior to recording, oocytes were injected with 500 pg chimeric Gα subunit mRNA. Dual electrode voltage clamp (Axon Instruments Inc.) was performed using 3 M KCl-filled glass microelectrodes having resistances of 1–2 MOhm. Unless otherwise specified, oocytes were voltage clamped at a holding potential of −80 mV. During recordings, oocytes were bathed in continuously flowing (1–3 ml/min) medium containing 96 mM NaCl, 2 mM KCl, 1.8 mM CaCl2, 1 mM MgCl2, and 5 mM HEPES, pH 7.5 (ND96). Drugs were applied by local perfusion from a 10 μl glass capillary tube fixed at a distance of 0.5 mm from the oocyte. Experiments were carried out at room temperature. All values are expressed as mean±standard error of the mean.

T1 sequence (Q9GZQ6 whole entry): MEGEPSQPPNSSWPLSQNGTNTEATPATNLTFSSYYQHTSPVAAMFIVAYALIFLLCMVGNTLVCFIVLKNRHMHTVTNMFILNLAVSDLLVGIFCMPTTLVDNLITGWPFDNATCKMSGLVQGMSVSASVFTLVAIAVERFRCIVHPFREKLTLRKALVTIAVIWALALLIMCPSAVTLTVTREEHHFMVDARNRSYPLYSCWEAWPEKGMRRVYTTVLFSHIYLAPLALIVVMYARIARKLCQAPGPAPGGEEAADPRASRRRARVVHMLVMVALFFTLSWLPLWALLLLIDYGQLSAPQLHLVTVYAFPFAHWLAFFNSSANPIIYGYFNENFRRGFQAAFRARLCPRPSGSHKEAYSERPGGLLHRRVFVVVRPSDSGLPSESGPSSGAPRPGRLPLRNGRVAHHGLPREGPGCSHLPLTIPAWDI

With `O=C(O)CN(CCOCCOCCN(CC(=O)O)CC(=O)O)CC(=O)O` [EGTA, reference compound] the “currents stimulated by NPFF in oocytes expressing NPFF1 and cGαq/z5” value was “blocked”.
